Measurements reported in ChEMBL document CHEMBL5634193, “Discovery of CVN293, a Brain Permeable KCNK13 (THIK-1) Inhibitor Suitable for Clinical Assessment” (ACS Med Chem Lett, 2024).
Converted amounts (≈) assume the structure as drawn. The source made the active and inactive calls. No cut-off for these calls is given here.

How the values were obtained:
[1] = target: T1, Potassium channel subfamily K member 13 (Homo sapiens, UniProt Q9HB14); test: Inhibition of human KCNK13 transfected in HEK293 cells assessed as reduction in thallium influx incubated for 15 mins in dark by FLIPR assay; type: cell-based
T1 sequence (Q9HB14 whole entry): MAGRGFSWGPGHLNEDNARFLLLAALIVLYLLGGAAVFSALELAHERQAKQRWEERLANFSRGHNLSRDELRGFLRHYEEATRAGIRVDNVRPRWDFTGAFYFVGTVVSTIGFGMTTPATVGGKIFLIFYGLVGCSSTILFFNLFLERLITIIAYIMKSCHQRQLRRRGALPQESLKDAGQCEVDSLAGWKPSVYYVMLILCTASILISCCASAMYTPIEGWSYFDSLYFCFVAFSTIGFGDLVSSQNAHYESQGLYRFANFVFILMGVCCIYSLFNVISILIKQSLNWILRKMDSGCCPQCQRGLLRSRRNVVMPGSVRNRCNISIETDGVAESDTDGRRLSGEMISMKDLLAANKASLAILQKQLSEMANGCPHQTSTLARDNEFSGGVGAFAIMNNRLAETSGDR

[2] = C0 in Beagle dog at 1 mg/kg, iv; type: ADME, organism-based, Canis lupus familiaris; conditions: in vivo
[3] = Protein binding in mouse brain assessed as unbound fraction by equilibrium dialysis; type: ADME, tissue-based
[4] = Half life in Beagle dog at 1 mg/kg, iv; type: ADME, organism-based, Canis lupus familiaris; conditions: in vivo
[5] = C0 in Sprague-Dawley rat at 0.5 mg/kg, iv; type: ADME, organism-based; conditions: in vivo
[6] = test system: HEK293; test: Inhibition of recombinant human KCNK6 transfected in HEK293 cells assessed as reduction in thallium influx at 30 uM incubated for 15 mins in dark by FLIPR assay relative to control; type: cell-based
[7] = target: Voltage-dependent L-type calcium channel subunit alpha-1C (Homo sapiens, UniProt Q13936); test: Inhibition of CaV1.2 (unknown origin); type: toxicity
[8] = target: NACHT, LRR and PYD domains-containing protein 3 (Mus musculus) (UniProt Q8R4B8); test: Inhibition of NLRP3 inflammasome-mediated IL-1beta release in LPS-primed neonatal C57BL/6 P1-4 mouse microglia pretreated for 30 mins followed by media removal and compound re-addition with K+-free buffer measured after 2 hrs by ELISA relative to control; type: cell-based; conditions: time 150.0 min
[9] = target: Voltage-gated inwardly rectifying potassium channel KCNH2 (Homo sapiens, UniProt Q12809); test: Inhibition of hERG; type: toxicity
[10] = target: T2, Potassium channel subfamily K member 13 (Mus musculus, UniProt Q8R1P5); test: Inhibition of mouse KCNK13 transfected in HEK293 cells assessed as reduction in thallium influx incubated for 15 mins in dark by FLIPR assay; type: cell-based
T2 sequence (Q8R1P5 whole entry): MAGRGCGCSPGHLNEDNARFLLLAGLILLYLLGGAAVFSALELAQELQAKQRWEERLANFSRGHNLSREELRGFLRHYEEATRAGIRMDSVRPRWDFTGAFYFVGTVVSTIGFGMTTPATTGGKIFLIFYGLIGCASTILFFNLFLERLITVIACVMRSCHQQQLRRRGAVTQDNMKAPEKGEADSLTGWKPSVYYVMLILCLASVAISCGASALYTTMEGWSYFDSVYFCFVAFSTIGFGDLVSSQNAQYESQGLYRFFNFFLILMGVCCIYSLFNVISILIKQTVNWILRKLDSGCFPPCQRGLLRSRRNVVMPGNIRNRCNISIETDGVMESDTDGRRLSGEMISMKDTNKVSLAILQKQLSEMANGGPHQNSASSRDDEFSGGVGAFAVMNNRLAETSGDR

[11] = Tmax in Cynomolgus monkey at 3 mg/kg, po; type: ADME, organism-based, Macaca fascicularis; conditions: in vivo
[12] = Kinetic aqueous solubility of compound at pH 7.4; type: physicochemical; conditions: buffer, read-out: Kinetic_solubility
[13] = Half life in Cynomolgus monkey at 1 mg/kg, iv; type: ADME, organism-based, Macaca fascicularis; conditions: in vivo
[14] = Clearance in Sprague-Dawley rat at 0.5 mg/kg, iv; type: ADME, organism-based; conditions: in vivo
[15] = target: T1, Potassium channel subfamily K member 13; test: Inhibition of human KCNK13 transfected in HEK293 cells; type: cell-based
[16] = target: T3, Potassium channel subfamily K member 13 (Homo sapiens) (UniProt Q9HB14); test: Inhibition of human KCNK13 transfected in HEK293 cells assessed as reduction in thallium influx incubated for 15 mins in dark by FLIPR assay relative to control; type: cell-based
T3 sequence (whole entry): T1 sequence (Q9HB14 whole entry)

[17] = target: T2, Potassium channel subfamily K member 13; test: Inhibition of mouse KCNK13 transfected in HEK293 cells; type: cell-based
[18] = Half life in Sprague-Dawley rat at 3 mg/kg, po; type: ADME, organism-based; conditions: in vivo
[19] = Tmax in Sprague-Dawley rat at 3 mg/kg, po; type: ADME, organism-based; conditions: in vivo
[20] = Oral bioavailability in Sprague-Dawley rat at 3 mg/kg; type: ADME, organism-based; conditions: in vivo
[21] = Unbound drug concentration in C57BL/6 mouse plasma at 10 mg/kg, po measured after 4 hrs by LC-MS/MS analysis; type: ADME, organism-based; conditions: in vivo
[22] = Clearance in Cynomolgus monkey at 1 mg/kg, iv; type: ADME, organism-based, Macaca fascicularis; conditions: in vivo
[23] = Cmax in Sprague-Dawley rat at 3 mg/kg, po; type: ADME, organism-based; conditions: in vivo
[24] = Ratio of drug concentration in brain to plasma C57BL/6 mouse at 10 mg/kg, po measured after 4 hrs by LC-MS/MS analysis; type: ADME, organism-based; conditions: brain and plasma, read-out: BPR
[25] = test system: KCNK2 (Homo sapiens); test: Inhibition of recombinant human KCNK2 transfected in HEK293 cells assessed as reduction in thallium influx at 30 uM incubated for 15 mins in dark by FLIPR assay relative to control
[26] = Unbound drug concentration in C57BL/6 mouse brain at 10 mg/kg, po measured after 4 hrs by LC-MS/MS analysis; type: ADME, organism-based; conditions: in vivo
[27] = target: Sodium channel protein type 5 subunit alpha (Homo sapiens, UniProt Q14524); test: Inhibition of NaV1.5 (unknown origin); type: toxicity
[28] = AUC (0 to infinity) in Sprague-Dawley rat at 3 mg/kg, po; type: ADME, organism-based; conditions: in vivo
[29] = Metabolic stability in human liver microsomes assessed as intrinsic clearance; type: ADME, Microsome; conditions: read-out: CLH
[30] = Clearance in Beagle dog at 1 mg/kg, iv; type: ADME, organism-based, Canis lupus familiaris; conditions: in vivo
[31] = Metabolic stability in mouse liver microsomes assessed as intrinsic clearance; type: ADME, Microsome; conditions: read-out: CLH
[32] = Oral bioavailability in Cynomolgus monkey at 3 mg/kg; type: ADME, organism-based, Macaca fascicularis; conditions: in vivo
[33] = target: NACHT, LRR and PYD domains-containing protein 3 (Mus musculus) (UniProt Q8R4B8); test: Inhibition of NLRP3 inflammasome-mediated IL-1beta release in LPS/ATP-induced C57Bl6 mouse hippocampus at 1 uM pretreated for 1 hr followed by ATP addition measured after 3 hrs by ELISA; type: tissue-based; conditions: time 4.0 hrs
[34] = Volume of distribution at steady state in Cynomolgus monkey at 1 mg/kg, iv; type: ADME, organism-based, Macaca fascicularis; conditions: in vivo, read-out: Vdss
[35] = Cmax in Cynomolgus monkey at 3 mg/kg, po; type: ADME, organism-based, Macaca fascicularis; conditions: in vivo
[36] = Ratio of unbound drug concentration in brain to plasma C57BL/6 mouse at 10 mg/kg, po measured after 4 hrs by LC-MS/MS analysis; type: ADME, organism-based; conditions: brain and plasma, read-out: K(p,uu,brain)
[37] = Metabolic stability in rat liver microsomes assessed as intrinsic clearance; type: ADME, Microsome; conditions: read-out: CLH
[38] = AUC (0 to infinity) in Cynomolgus monkey at 3 mg/kg, po; type: ADME, organism-based, Macaca fascicularis; conditions: in vivo

Sequence of NACHT, LRR and PYD domains-containing protein 3 (Mus musculus) (Q8R4B8 whole entry, the tested form may be a part): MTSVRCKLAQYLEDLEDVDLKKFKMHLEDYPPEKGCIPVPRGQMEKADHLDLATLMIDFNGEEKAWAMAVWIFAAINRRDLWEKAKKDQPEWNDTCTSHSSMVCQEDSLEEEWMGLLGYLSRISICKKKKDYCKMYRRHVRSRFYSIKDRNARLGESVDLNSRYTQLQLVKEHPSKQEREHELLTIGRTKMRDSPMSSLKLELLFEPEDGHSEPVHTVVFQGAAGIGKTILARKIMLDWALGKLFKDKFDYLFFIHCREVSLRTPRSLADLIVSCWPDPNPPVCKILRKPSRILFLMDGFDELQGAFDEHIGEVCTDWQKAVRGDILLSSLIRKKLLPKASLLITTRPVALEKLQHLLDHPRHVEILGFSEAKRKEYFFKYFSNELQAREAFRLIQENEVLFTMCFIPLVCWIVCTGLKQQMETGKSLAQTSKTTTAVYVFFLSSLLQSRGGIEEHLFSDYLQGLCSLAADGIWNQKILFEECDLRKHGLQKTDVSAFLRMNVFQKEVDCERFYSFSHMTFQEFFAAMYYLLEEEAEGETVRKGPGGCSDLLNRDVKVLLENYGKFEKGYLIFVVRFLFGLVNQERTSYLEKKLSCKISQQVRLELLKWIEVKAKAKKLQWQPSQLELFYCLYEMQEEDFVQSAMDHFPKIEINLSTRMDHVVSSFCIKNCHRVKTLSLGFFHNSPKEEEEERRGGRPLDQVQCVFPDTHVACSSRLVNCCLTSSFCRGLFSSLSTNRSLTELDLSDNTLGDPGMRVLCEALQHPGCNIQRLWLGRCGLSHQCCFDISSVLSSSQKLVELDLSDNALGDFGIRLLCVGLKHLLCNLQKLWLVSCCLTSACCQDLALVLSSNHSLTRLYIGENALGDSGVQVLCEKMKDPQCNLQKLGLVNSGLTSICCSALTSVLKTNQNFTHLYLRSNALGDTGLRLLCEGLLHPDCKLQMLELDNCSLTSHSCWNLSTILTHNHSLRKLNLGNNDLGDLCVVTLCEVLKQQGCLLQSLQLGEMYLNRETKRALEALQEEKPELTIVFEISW
Sequence of Voltage-gated inwardly rectifying potassium channel KCNH2 (Q12809 whole entry): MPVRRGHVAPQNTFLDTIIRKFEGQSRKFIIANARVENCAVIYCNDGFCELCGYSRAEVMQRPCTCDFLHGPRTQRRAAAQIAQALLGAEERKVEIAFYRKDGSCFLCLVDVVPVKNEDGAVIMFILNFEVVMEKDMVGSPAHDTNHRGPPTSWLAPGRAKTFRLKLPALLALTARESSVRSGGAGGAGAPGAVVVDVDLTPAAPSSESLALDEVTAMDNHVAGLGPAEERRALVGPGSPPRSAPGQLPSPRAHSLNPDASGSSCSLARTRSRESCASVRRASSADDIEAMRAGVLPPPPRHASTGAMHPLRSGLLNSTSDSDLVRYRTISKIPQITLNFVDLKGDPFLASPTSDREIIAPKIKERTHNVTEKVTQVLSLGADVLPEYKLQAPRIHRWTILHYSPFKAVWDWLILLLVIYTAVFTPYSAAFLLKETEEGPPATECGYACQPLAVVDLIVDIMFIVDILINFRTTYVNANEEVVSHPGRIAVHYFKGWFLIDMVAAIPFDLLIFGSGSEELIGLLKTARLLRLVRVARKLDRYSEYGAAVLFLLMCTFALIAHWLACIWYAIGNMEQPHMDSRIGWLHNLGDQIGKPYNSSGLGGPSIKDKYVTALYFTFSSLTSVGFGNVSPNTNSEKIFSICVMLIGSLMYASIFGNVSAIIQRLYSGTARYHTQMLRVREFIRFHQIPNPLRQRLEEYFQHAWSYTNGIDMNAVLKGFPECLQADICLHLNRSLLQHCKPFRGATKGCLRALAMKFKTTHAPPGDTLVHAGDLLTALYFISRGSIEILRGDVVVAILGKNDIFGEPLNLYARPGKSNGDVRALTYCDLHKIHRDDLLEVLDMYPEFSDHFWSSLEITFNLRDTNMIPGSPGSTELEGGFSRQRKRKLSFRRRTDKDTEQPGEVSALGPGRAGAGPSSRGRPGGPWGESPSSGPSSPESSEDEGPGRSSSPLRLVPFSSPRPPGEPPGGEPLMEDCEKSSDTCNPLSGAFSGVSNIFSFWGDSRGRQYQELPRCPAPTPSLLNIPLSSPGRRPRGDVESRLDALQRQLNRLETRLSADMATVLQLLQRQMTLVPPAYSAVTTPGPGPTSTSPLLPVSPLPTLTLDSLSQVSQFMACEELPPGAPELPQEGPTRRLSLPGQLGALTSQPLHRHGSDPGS
Sequence of Sodium channel protein type 5 subunit alpha (Q14524 whole entry): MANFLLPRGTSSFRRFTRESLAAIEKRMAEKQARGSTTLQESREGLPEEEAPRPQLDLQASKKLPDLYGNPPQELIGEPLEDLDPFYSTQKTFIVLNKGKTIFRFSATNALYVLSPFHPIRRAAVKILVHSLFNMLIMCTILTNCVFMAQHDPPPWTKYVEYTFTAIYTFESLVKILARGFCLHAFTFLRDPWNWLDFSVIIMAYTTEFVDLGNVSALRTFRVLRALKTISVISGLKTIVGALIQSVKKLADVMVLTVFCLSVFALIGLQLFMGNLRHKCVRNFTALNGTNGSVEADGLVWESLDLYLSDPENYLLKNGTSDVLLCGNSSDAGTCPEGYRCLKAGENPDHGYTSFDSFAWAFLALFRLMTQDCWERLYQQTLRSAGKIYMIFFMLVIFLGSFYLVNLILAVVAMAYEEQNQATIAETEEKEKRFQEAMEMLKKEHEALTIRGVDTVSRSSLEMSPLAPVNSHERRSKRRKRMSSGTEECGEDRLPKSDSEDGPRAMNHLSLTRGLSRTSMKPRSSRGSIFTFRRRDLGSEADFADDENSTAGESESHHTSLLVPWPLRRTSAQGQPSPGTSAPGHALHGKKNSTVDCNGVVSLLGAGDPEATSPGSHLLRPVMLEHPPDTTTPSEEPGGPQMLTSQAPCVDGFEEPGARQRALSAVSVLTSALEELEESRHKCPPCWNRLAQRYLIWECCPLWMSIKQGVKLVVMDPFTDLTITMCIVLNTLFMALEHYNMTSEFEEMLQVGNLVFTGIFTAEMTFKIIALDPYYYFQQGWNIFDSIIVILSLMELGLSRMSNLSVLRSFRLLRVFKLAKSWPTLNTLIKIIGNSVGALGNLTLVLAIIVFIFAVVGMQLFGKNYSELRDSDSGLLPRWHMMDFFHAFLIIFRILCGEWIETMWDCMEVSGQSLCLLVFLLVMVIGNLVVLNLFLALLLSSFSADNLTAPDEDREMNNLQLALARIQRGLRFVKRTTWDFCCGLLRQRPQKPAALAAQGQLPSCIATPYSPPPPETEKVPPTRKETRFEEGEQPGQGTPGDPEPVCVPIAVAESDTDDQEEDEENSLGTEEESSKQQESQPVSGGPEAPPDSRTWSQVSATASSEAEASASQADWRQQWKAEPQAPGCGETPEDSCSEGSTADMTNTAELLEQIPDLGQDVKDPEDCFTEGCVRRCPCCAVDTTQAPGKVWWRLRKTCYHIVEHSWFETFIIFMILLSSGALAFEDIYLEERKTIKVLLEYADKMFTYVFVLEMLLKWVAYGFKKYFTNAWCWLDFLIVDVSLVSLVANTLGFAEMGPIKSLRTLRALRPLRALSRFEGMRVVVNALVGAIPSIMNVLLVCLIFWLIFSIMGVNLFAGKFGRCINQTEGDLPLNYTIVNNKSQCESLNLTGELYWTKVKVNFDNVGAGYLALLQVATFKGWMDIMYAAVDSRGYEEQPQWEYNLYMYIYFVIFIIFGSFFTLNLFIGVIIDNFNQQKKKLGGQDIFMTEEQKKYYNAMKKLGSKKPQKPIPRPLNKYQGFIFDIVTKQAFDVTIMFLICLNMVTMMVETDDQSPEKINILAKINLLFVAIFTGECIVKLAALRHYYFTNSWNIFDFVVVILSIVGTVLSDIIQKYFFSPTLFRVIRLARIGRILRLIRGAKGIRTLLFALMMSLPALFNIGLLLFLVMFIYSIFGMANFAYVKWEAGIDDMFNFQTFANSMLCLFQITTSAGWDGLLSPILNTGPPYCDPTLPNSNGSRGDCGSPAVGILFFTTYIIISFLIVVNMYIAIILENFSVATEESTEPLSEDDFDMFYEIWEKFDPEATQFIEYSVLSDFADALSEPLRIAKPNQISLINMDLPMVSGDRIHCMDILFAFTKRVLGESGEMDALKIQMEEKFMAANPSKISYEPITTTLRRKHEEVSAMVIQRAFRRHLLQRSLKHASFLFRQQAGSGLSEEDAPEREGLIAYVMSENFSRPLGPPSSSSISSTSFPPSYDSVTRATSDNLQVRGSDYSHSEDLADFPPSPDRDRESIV

Nc1nonc1-c1nc2cccc(F)c2n1Cc1cccnn1
IC50 [1]: 41 nM | C0 [2]: 626 ng/mL | fraction unbound [3]: 0.136 | half-life [4]: 0.5 h | C0 [5]: 304 ng/mL | Imax [6]: 10.7% | inhibition (INH) [7]: Not Active | Imax [8]: 59.1% | inhibition (INH) [9]: Not Active | IC50 [10]: 28 nM | Tmax [11]: 1 h | solubility kinetic [12]: 94 µM (≈ 29.3 µg/mL) | half-life [13]: 1.1 h | clearance [14]: 35 mL/min/kg | IC50 [15]: 41 nM | Imax [16]: 100% | IC50 [17]: 28 nM | half-life [18]: 2 h | Tmax [19]: 1 h | bioavailability [20]: 87% | Cp(f) [21]: 372 nM | clearance [22]: 22 mL/min/kg | Cmax [23]: 468 ng/mL | Kp at 4 h [24]: 0.84 | Imax [25]: 17.4% | Cp(f) [26]: 248 nM | inhibition (INH) [27]: Not Active | AUC(0-inf) [28]: 1240 ng·h/mL | microsomal CLint [29]: < 9.6 µL/min/mg | clearance [30]: 38 mL/min/kg | microsomal CLint [31]: < 9.6 µL/min/mg | bioavailability [32]: 24% | inhibition [33]: Active | Vd [34]: 1.45 L/kg | Cmax [35]: 165 ng/mL | Kp uu at 4 h [36]: 0.66 | microsomal CLint [37]: 9.9 µL/min/mg | AUC(0-inf) [38]: 546 ng·h/mL
